Experimental data taken from ChEMBL document CHEMBL1130617, “S-aryl cysteine S,S-dioxides as inhibitors of mammalian kynureninase” (Bioorg Med Chem Lett, 1998).
pIC50, pKi: −log10 of the molar value.

Assays:
Kynureninase [1] = molecular target: T1, Kynureninase (Rattus norvegicus, UniProt P70712); assay: Compound was tested for the inhibition of mammalian kynureninase in rat liver; assay type: tissue-based
T1 sequence (P70712 whole entry): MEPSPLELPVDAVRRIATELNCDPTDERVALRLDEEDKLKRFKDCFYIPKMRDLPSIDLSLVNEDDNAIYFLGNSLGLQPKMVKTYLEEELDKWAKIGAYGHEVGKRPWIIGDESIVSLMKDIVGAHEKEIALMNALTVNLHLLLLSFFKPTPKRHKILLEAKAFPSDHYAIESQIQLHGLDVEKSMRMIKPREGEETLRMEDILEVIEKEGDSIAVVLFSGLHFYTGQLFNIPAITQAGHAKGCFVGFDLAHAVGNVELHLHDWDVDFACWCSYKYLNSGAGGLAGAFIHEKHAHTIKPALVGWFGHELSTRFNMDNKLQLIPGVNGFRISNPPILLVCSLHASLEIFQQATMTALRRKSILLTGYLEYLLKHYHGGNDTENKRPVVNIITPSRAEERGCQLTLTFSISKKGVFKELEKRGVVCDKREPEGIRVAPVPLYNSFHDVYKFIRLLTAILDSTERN

Kynureninase [2] = molecular target: T1, Kynureninase; assay: Compound was tested for the binding affinity against kynureninase in rat liver

| SMILES | pIC50 (Kynureninase [1]) | pKi (Kynureninase [2]) |
| --- | --- | --- |
| Nc1ccccc1S(=O)(=O)CC(N)C(=O)O (stereo not given) | 4.44 | 4.74 |
| COc1cccc(S(=O)(=O)CC(N)C(=O)O)c1N (stereo not given) | 4.54 |  |
| Cc1ccc(N)c(S(=O)(=O)CC(N)C(=O)O)c1 (stereo not given) | 4.96 |  |
| Nc1c(F)cccc1S(=O)(=O)CC(N)C(=O)O (stereo not given) | 4.70 |  |
